According to ChEMBL document CHEMBL1147344, “New Chlorophyll-A-Related Compounds Isolated as Antioxidants from Marine Bivalves” (J Nat Prod, 1993):
Active and inactive are the calls of the source. No cut-off for these calls is given here.

assay: Antioxidant activity assessed as inhibition of lipid peroxidation in dark at 40 degC by paper disk method; format: functional

Structure (SMILES) | Activity
C=Cc1c(C)c2cc3nc4c5c6[nH]c(cc7nc(cc1[nH]2)C(C)=C7CC)c(C)c6C(=O)[C@]5(O)C(=O)CC[C@H]4[C@@H]3C | Active

assay: Antioxidant activity assessed as inhibition of lipid peroxidation at 20 ug incubated at 40 degC in dark by paper disk method; format: functional

Structure (SMILES) | Activity
Cc1c(C)c2c(c(C)c1O)CC[C@@](C)(CCC[C@H](C)CCC[C@H](C)CCCC(C)C)O2 | Active

assay: Antioxidant activity assessed as inhibition of lipid peroxidation at 3 ug incubated at 40 degC in dark by paper disk method; format: functional

Structure (SMILES) | Activity
C=Cc1c(C)c2cc3nc(c4c5[nH]c(cc6nc(cc1[nH]2)C(C)=C6CC)c(C)c5C(=O)OC4=O)[C@@H](CCC(=O)O)[C@@H]3C | Active
C=Cc1c(C)c2cc3nc4c(c5[nH]c(cc6nc(cc1[nH]2)C(C)=C6CC)c(C)c5C(=O)OC)C(=O)C(=O)CC[C@H]4[C@@H]3C | Active
C=Cc1c(C)c2cc3nc4c5c6[nH]c(cc7nc(cc1[nH]2)C(C)=C7CC)c(C)c6C(=O)O[C@@]5(O)C(=O)CC[C@H]4[C@@H]3C | Active
C=Cc1c(C)c2cc3nc4c5c6[nH]c(cc7nc(cc1[nH]2)C(C)=C7CC)c(C)c6C(=O)[C@@]5(O)C(=O)CC[C@H]4[C@@H]3C | Active
C=Cc1c(C)c2cc3nc(c4c5[nH]c(cc6nc(cc1[nH]2)C(C)=C6CC)c(C)c5C(=O)C4)[C@@H](CCC(=O)O)[C@@H]3C | Active
C=Cc1c(C)c2cc3nc(c4c5[nH]c(cc6nc(cc1[nH]2)C(C)=C6CC)c(C)c5C(=O)OC4=O)[C@@H](CCC(=O)OC)[C@@H]3C | Active
C=Cc1c(C)c2cc3nc(c4c5[nH]c(cc6nc(cc1[nH]2)C(C)=C6CC)c(C)c5C(=O)C4=O)[C@@H](CCC(=O)O)[C@@H]3C | Active
